Test results reported in ChEMBL document CHEMBL1201862, “PubChem BioAssay data set” (2004).
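Growth conditions: 96-well plates. Treatment: test compound, 48 hours, 5 concentrations. Analysis: linear interpolation between bracketing concentrations; unreached endpoints set to highest concentration. GI50 is the concentration that inhibits growth by half.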 Activity calls are given as the source filed them. Rule as the data show it: active = GI50 up to about 1.1 µM and inactive = higher.

Tests used:
Experiment in all cases: NCI tumour cell line growth inhibition, 48 h
MDA-MB-435 = system: MDA-MB-435
EKVX = system: EKVX
HT-29 = system: HT-29
SF-268 = system: SF-268
Hs-578T = system: Hs-578T
MOLT-4 = system: MOLT-4
ACHN = system: ACHN
SK-MEL-2 = system: SK-MEL-2
SNB-19 = system: SNB-19
M14 = system: M14
HL-60 = system: HL-60
T47D = system: T47D
SR = system: SR
TK-10 = system: TK-10
COLO 205 = system: COLO 205
K562 = system: K562
OVCAR-5 = system: OVCAR-5
NCI-H460 = system: NCI-H460
MDA-MB-231 = system: MDA-MB-231
A549 = system: A549
DU-145 = system: DU-145
SNB-75 = system: SNB-75
SF-539 = system: SF-539
PC-3 = system: PC-3
HCT-15 = system: HCT-15
MDA-N = system: MDA-N
KM12 = system: KM12
SF-295 = system: SF-295
CCRF-CEM = system: CCRF-CEM
HOP-62 = system: HOP-62
SW-620 = system: SW-620
SK-MEL-5 = system: SK-MEL-5
UACC-257 = system: UACC-257
HCC 2998 = system: HCC 2998
786-0 = system: 786-0
SK-OV-3 = system: SK-OV-3
OVCAR-4 = system: OVCAR-4
HCT-116 = system: HCT-116
LOX IMVI = system: LOX IMVI
NCI-H522 = system: NCI-H522
NCI/ADR-RES = system: NCI/ADR-RES
BT-549 = system: BT-549
SN12C = system: SN12C
RXF 393 = system: RXF 393
OVCAR-3 = system: OVCAR-3
UACC-62 = system: UACC-62
NCI-H23 = system: NCI-H23
OVCAR-8 = system: OVCAR-8
IGROV-1 = system: IGROV-1
Malme-3M = system: Malme-3M
CAKI-1 = system: CAKI-1
UO-31 = system: UO-31
MCF7 = system: MCF7
NCI-H226 = system: NCI-H226
HOP-92 = system: HOP-92
SK-MEL-28 = system: SK-MEL-28
U-251 = system: U-251
RPMI-8226 = system: RPMI-8226
A498 = system: A498

Compound: Cn1nnc2c3c(N(CCO)CCO)ccnc3ccc21
- GI50 (MDA-MB-435): > 100 µM (inactive)
- GI50 (EKVX): > 100 µM (inactive)
- GI50 (HT-29): 89.3 µM (inactive)
- GI50 (SF-268): 87.5 µM (inactive)
- GI50 (Hs-578T): > 100 µM (inactive)
- GI50 (MOLT-4): 47.4 µM (inactive)
- GI50 (ACHN): > 100 µM (inactive)
- GI50 (SK-MEL-2): > 100 µM (inactive)
- GI50 (SNB-19): 49.1 µM (inactive)
- GI50 (M14): > 100 µM (inactive)
- GI50 (HL-60): > 10 µM (inactive)
- GI50 (T47D): 59.3 µM (inactive)
- GI50 (SR): 19.1 µM (inactive)
- GI50 (TK-10): > 100 µM (inactive)
- GI50 (COLO 205): 95.9 µM (inactive)
- GI50 (K562): > 100 µM (inactive)
- GI50 (OVCAR-5): > 100 µM (inactive)
- GI50 (NCI-H460): 39.9 µM (inactive)
- GI50 (MDA-MB-231): > 100 µM (inactive)
- GI50 (A549): > 100 µM (inactive)
- GI50 (DU-145): > 100 µM (inactive)
- GI50 (SNB-75): > 100 µM (inactive)
- GI50 (SF-539): 99.5 µM (inactive)
- GI50 (PC-3): 65.6 µM (inactive)
- GI50 (HCT-15): > 100 µM
- GI50 (MDA-N): > 100 µM (inactive)
- GI50 (KM12): 97.5 µM (inactive)
- GI50 (SF-295): > 100 µM (inactive)
- GI50 (CCRF-CEM): > 100 µM (inactive)
- GI50 (HOP-62): 47.2 µM (inactive)
- GI50 (SW-620): > 100 µM (inactive)
- GI50 (SK-MEL-5): > 100 µM (inactive)
- GI50 (UACC-257): > 100 µM (inactive)
- GI50 (HCC 2998): 29.7 µM (inactive)
- GI50 (786-0): > 100 µM (inactive)
- GI50 (SK-OV-3): > 100 µM (inactive)
- GI50 (OVCAR-4): > 100 µM (inactive)
- GI50 (HCT-116): 54.2 µM (inactive)
- GI50 (LOX IMVI): > 100 µM (inactive)
- GI50 (NCI-H522): > 10 µM (inactive)
- GI50 (NCI/ADR-RES): > 100 µM (inactive)
- GI50 (BT-549): > 100 µM (inactive)
- GI50 (SN12C): > 100 µM (inactive)
- GI50 (RXF 393): > 100 µM (inactive)
- GI50 (OVCAR-3): > 100 µM (inactive)
- GI50 (UACC-62): > 100 µM (inactive)
- GI50 (NCI-H23): 97.9 µM (inactive)
- GI50 (OVCAR-8): > 100 µM (inactive)
- GI50 (IGROV-1): > 100 µM (inactive)
- GI50 (Malme-3M): > 100 µM (inactive)
- GI50 (CAKI-1): > 100 µM (inactive)
- GI50 (UO-31): > 100 µM (inactive)
- GI50 (MCF7): 47.9 µM (inactive)

Compound: COc1ccc(C(=O)N2CCN(c3ccc4[nH]c(=O)oc4c3)CC2)cc1
- GI50 (MDA-MB-435): > 100 µM (inactive)
- GI50 (EKVX): 78.7 µM (inactive)
- GI50 (HT-29): > 100 µM (inactive)
- GI50 (SF-268): > 100 µM (inactive)
- GI50 (Hs-578T): 58.5 µM (inactive)
- GI50 (NCI-H226): > 100 µM (inactive)
- GI50 (MOLT-4): > 100 µM (inactive)
- GI50 (ACHN): 69.8 µM (inactive)
- GI50 (SK-MEL-2): > 100 µM (inactive)
- GI50 (HOP-92): > 100 µM (inactive)
- GI50 (SNB-19): > 100 µM (inactive)
- GI50 (M14): > 100 µM (inactive)
- GI50 (HL-60): 39.4 µM (inactive)
- GI50 (T47D): > 100 µM (inactive)
- GI50 (SR): 92.5 µM (inactive)
- GI50 (TK-10): > 100 µM (inactive)
- GI50 (COLO 205): > 100 µM (inactive)
- GI50 (OVCAR-5): > 100 µM (inactive)
- GI50 (NCI-H460): > 100 µM (inactive)
- GI50 (MDA-MB-231): > 100 µM (inactive)
- GI50 (A549): > 100 µM (inactive)
- GI50 (DU-145): > 100 µM (inactive)
- GI50 (SNB-75): 62.4 µM (inactive)
- GI50 (SF-539): > 100 µM (inactive)
- GI50 (PC-3): > 100 µM (inactive)
- GI50 (HCT-15): > 100 µM
- GI50 (SK-MEL-28): > 100 µM (inactive)
- GI50 (MDA-N): > 100 µM (inactive)
- GI50 (KM12): > 100 µM (inactive)
- GI50 (SF-295): > 100 µM (inactive)
- GI50 (CCRF-CEM): > 100 µM (inactive)
- GI50 (HOP-62): > 100 µM (inactive)
- GI50 (SW-620): > 100 µM (inactive)
- GI50 (SK-MEL-5): > 100 µM (inactive)
- GI50 (U-251): > 100 µM (inactive)
- GI50 (UACC-257): > 100 µM (inactive)
- GI50 (HCC 2998): > 100 µM (inactive)
- GI50 (786-0): > 100 µM (inactive)
- GI50 (SK-OV-3): > 100 µM (inactive)
- GI50 (OVCAR-4): 84.1 µM (inactive)
- GI50 (HCT-116): > 100 µM (inactive)
- GI50 (LOX IMVI): > 100 µM (inactive)
- GI50 (NCI-H522): 53.1 µM (inactive)
- GI50 (NCI/ADR-RES): > 100 µM (inactive)
- GI50 (BT-549): > 100 µM (inactive)
- GI50 (RPMI-8226): > 100 µM (inactive)
- GI50 (SN12C): > 100 µM (inactive)
- GI50 (OVCAR-3): > 100 µM (inactive)
- GI50 (UACC-62): 99.3 µM (inactive)
- GI50 (NCI-H23): > 100 µM (inactive)
- GI50 (OVCAR-8): > 100 µM (inactive)
- GI50 (IGROV-1): 99.1 µM (inactive)
- GI50 (Malme-3M): 48.5 µM (inactive)
- GI50 (UO-31): > 100 µM (inactive)
- GI50 (MCF7): > 100 µM (inactive)

Compound: COC(=O)c1cc(/C=C\c2cc(OC)ccc2OC)ccc1OC
- GI50 (MDA-MB-435): 8.81 µM (inactive)
- GI50 (EKVX): 26.1 µM (inactive)
- GI50 (HT-29): 25.6 µM (inactive)
- GI50 (SF-268): 32.7 µM (inactive)
- GI50 (Hs-578T): 40.4 µM (inactive)
- GI50 (MOLT-4): 6.75 µM (inactive)
- GI50 (ACHN): 32.1 µM (inactive)
- GI50 (SK-MEL-2): 24.9 µM (inactive)
- GI50 (SNB-19): 34 µM (inactive)
- GI50 (M14): 26.1 µM (inactive)
- GI50 (T47D): 18.7 µM (inactive)
- GI50 (SR): 10.4 µM (inactive)
- GI50 (TK-10): 50.8 µM (inactive)
- GI50 (COLO 205): 21.2 µM (inactive)
- GI50 (K562): 6.5 µM (inactive)
- GI50 (OVCAR-5): 39.4 µM (inactive)
- GI50 (NCI-H460): 51.2 µM (inactive)
- GI50 (MDA-MB-231): 34.4 µM (inactive)
- GI50 (A498): 28.7 µM (inactive)
- GI50 (A549): 32.1 µM (inactive)
- GI50 (DU-145): 26.9 µM (inactive)
- GI50 (SF-539): 38.5 µM (inactive)
- GI50 (PC-3): 26.1 µM (inactive)
- GI50 (HCT-15): 33.2 µM
- GI50 (SK-MEL-28): 18.4 µM (inactive)
- GI50 (MDA-N): 17.7 µM (inactive)
- GI50 (KM12): 29.2 µM (inactive)
- GI50 (SF-295): 30.8 µM (inactive)
- GI50 (CCRF-CEM): 55.1 µM (inactive)
- GI50 (HOP-62): 25.6 µM (inactive)
- GI50 (SW-620): 38.9 µM (inactive)
- GI50 (SK-MEL-5): 17.7 µM (inactive)
- GI50 (U-251): 32.3 µM (inactive)
- GI50 (UACC-257): 30.5 µM (inactive)
- GI50 (HCC 2998): 22.4 µM (inactive)
- GI50 (786-0): 35.1 µM (inactive)
- GI50 (SK-OV-3): 37.3 µM (inactive)
- GI50 (OVCAR-4): 33.6 µM (inactive)
- GI50 (HCT-116): 32.4 µM (inactive)
- GI50 (LOX IMVI): 24 µM (inactive)
- GI50 (NCI-H522): 19.9 µM (inactive)
- GI50 (NCI/ADR-RES): 37.3 µM (inactive)
- GI50 (BT-549): 31.2 µM (inactive)
- GI50 (RPMI-8226): 18.4 µM (inactive)
- GI50 (SN12C): 38.2 µM (inactive)
- GI50 (OVCAR-3): 24.4 µM (inactive)
- GI50 (UACC-62): 22.6 µM (inactive)
- GI50 (NCI-H23): 43.3 µM (inactive)
- GI50 (OVCAR-8): 36.4 µM (inactive)
- GI50 (IGROV-1): 13.7 µM (inactive)
- GI50 (CAKI-1): 33.3 µM (inactive)
- GI50 (UO-31): 30.3 µM (inactive)
- GI50 (MCF7): 25.6 µM (inactive)
